# Test results from ChEMBL document CHEMBL1201862, “PubChem BioAssay data set” (2004).
# Activity calls are given as the source filed them.
# Legend:
# [1] = THP-1 cell cytotoxicity, dose response, cytotoxicity control for Vif-APOBEC3G degradation inhibitor project, THP-1 cells (AID 1117359); format: functional; conditions: Human immunodeficiency virus 1, THP-1
# [2] = molecular target: Eukaryotic translation initiation factor 4E (Mus musculus, UniProt P63073); test: eIF4E–eIF4G protein interaction inhibitors, dose response, biochemical, TR-FRET (AID 855); format: functional;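 further: potency for disrupting eIF4E binding to eIF4GI seen as loss of FRET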
# Eukaryotic translation initiation factor 4E, sequence (P63073 whole entry): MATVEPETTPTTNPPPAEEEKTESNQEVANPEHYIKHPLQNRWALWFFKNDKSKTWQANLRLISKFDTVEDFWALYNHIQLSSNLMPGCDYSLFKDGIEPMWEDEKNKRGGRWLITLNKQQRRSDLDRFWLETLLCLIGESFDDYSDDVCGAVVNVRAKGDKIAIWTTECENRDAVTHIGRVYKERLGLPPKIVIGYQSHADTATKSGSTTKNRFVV
# [3] = system: Streptococcus sp. 'group A'; test: growth inhibition of control SK(-) GAS strain, dose response, counter-screen for streptokinase expression inhibitor project, luminescence, kanamycin, BacTiterGlo, confirmation (AID 1900); format: functional, organism-based
# Streptokinase A = molecular target: T1, Streptokinase A (Streptococcus pyogenes serotype M1, UniProt P10520); test: S. pyogenes streptokinase expression inhibitors, potency, dose response, plasminogen activation absorbance, OD405 (AID 1914); format: functional, Streptococcus pyogenes M1 GAS;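 further: secreted streptokinase activity via plasminogen activation per viability signal from cell pellet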
# T1 sequence (P10520 whole entry): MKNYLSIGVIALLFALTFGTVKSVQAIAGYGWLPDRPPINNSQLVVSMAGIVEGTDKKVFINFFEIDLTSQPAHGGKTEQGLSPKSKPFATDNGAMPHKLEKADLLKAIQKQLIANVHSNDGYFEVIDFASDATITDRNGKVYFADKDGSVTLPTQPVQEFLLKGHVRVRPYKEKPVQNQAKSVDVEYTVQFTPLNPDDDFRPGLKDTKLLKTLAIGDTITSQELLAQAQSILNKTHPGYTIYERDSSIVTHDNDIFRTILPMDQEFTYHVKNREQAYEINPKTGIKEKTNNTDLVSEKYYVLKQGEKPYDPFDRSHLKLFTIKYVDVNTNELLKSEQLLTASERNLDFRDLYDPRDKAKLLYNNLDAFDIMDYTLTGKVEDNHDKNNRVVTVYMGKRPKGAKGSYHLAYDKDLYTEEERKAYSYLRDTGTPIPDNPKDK
# [4] = inhibitors of intracellular T. cruzi replication, confirmation, NIH3T3 host cells, beta-gal luminescence (AID 2044); format: functional, cell-based;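 further: intracellular parasites grown in NIH/3T3 mouse fibroblasts as host cells; luminescent beta-galactosidase reporter signal from transgenic T. cruzi replicating inside host cells; inhibitors lower the luminescence signal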
# [5] = molecular target: T2, Calpain-2 catalytic subunit (Sus scrofa, UniProt P43367); test: pig calpain II inhibitor potency, dose response, biochemical, fluorogenic peptide substrate (AID 1420); format: functional
# T2 sequence (P43367 whole entry): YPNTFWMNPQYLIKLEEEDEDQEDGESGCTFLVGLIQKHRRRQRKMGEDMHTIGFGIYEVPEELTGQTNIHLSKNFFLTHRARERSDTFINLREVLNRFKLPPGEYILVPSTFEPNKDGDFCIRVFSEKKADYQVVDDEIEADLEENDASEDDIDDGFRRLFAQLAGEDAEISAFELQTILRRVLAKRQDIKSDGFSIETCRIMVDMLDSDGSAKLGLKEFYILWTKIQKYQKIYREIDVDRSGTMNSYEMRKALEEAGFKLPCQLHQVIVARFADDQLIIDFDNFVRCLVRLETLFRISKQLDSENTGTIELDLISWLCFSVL
# [6] = cytotoxicity toward NIH3T3 fibroblasts, dose response, counter-screen, cell-based, ATP luminescence, mouse fibroblasts (AID 2010); format: functional;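 further: cells exposed to compound for about 90 hours before reading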
# Streptococcus = test: Group A Streptococcus viability loss, dose response, counter-screen for streptokinase expression inhibitor project, luminescence, BacTiterGlo (AID 1915); format: functional, organism-based;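 further: potency for reduction of bacterial viability or growth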
# [7] = Vero cell cytotoxicity, dose response, cytotoxicity control for Vif-APOBEC3G degradation inhibitor project, Vero cells (AID 1117358); format: functional; conditions: Human immunodeficiency virus 1, Vero
# Prothrombin = Prothrombin (Homo sapiens, UniProt P00734); test: Thrombin 1536 HTS Dose Response Confirmation. [Related pubchem assays: 1046 (Thrombin 1536 HTS; hits were confirmed in this assay)]; format: functional
# [8] = inhibitors of Vif binding to APOBEC3G peptide, primary screen, biochemical, TR-FRET, GST-Vif 1-94, biotin-A3G peptide, dose response retest (AID 1117319); format: functional;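 further: TR-FRET signal of purified GST-Vif binding a biotinylated A3G peptide; inhibitors lower the FRET signal by blocking Vif and A3G binding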
# [9] = molecular target: Induced myeloid leukemia cell differentiation protein Mcl-1 (Homo sapiens, UniProt Q07820); format: functional
# Induced myeloid leukemia cell differentiation protein Mcl-1, sequence (Q07820 whole entry): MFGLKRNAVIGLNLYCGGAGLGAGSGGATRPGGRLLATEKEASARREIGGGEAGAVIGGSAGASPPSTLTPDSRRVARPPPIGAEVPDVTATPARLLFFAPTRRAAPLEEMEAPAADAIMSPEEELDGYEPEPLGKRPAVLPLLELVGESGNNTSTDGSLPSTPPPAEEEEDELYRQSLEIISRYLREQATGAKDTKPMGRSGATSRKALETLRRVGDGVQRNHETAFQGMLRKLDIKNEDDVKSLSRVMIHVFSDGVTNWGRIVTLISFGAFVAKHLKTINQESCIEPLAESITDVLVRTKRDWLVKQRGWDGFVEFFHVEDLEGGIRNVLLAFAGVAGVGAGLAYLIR
# Leucine aminopeptidase = molecular target: T3, Leucine aminopeptidase (Plasmodium falciparum 3D7, UniProt Q8IL11); test: P. falciparum M17LAP inhibitors, primary screen, biochemical, fluorogenic H-Leu-NHMec substrate, 1536-well (AID 1619); format: functional
# T3 sequence (Q8IL11 whole entry): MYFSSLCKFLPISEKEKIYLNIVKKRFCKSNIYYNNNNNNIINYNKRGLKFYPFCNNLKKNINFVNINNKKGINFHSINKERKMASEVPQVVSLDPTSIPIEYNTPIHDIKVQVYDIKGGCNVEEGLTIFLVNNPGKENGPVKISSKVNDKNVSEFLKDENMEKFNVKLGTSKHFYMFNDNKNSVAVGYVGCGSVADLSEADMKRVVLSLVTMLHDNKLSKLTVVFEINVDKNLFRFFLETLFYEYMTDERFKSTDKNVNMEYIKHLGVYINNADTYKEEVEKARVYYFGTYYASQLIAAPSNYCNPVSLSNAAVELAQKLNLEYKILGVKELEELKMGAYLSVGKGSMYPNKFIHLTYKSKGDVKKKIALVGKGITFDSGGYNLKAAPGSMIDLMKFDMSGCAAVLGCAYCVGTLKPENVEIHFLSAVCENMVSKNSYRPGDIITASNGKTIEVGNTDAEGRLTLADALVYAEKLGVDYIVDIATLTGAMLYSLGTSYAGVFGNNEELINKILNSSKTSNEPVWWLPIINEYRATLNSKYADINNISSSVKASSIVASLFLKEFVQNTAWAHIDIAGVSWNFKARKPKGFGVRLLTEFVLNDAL
# [10] = Luminescence Cell-Based Dose Confirmation HTS to Identify Activators of 5'UTR Stem-Loop Driven Alpha-Synuclein mRNA Translation in H4 Neuroglioblastoma Cells. [Related pubchem assays: 1829 (Project Summary), 1814 (Primary HTS)]; format: functional
# [11] = Luminescence Cell-Based Dose Response HTS to Identify Activators of Luciferase Translation or Activity in H4 […] Cells. [Related pubchem assays: 1829 (Project Summary), 1814 (Primary HTS)]; format: functional
# H4 = test: Luminescence Cell-Based Dose Response HTS to Identify Activators of 5'UTR Stem-Loop Driven Prion Protein mRNA Translation in H4 Neuroglioblastoma Cells. [Related pubchem assays: 1829 (Project Summary), 1814 (Primary HTS)]; format: functional; conditions: Homo sapiens
# [12] = cytotoxicity in HPDE-C7 cells, cell-based, fluorescence, HTS (AID 430); format: functional; conditions: Homo sapiens
# [13] = cytotoxicity in KRAS-transformed pancreatic duct cells, primary screen, cell-based, fluorescence, HTS (AID 431); format: functional; conditions: Homo sapiens;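 further: cell line used: HPDE-C7K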
# [14] = molecular target: DNA dC->dU-editing enzyme APOBEC-3G (Homo sapiens, UniProt Q9HC16); test: Dose Response confirmation of small molecule APOBEC3G DNA Deaminase Inhibitors via a fluorescence-based single-stranded DNA deaminase assay. [Related pubchem assays (depositor defined):AID493012, AID493028]; format: functional
# DNA dC->dU-editing enzyme APOBEC-3G, sequence (Q9HC16 whole entry): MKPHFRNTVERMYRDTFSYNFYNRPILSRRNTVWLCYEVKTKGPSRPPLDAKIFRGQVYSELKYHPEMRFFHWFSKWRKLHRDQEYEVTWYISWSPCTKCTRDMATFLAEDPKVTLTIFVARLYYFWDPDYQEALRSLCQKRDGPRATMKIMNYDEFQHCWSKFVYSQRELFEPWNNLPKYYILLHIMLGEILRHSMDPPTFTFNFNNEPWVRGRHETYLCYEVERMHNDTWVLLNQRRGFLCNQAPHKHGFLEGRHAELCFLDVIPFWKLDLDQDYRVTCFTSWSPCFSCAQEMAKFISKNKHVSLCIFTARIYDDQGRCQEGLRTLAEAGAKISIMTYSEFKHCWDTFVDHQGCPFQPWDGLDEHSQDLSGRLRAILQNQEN
# [15] = molecular target: Voltage-dependent T-type calcium channel subunit alpha-1H (Homo sapiens, UniProt O95180); format: functional;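 further: channel activity triggered by adding a high calcium stimulation buffer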
# Voltage-dependent T-type calcium channel subunit alpha-1H, sequence (O95180 whole entry): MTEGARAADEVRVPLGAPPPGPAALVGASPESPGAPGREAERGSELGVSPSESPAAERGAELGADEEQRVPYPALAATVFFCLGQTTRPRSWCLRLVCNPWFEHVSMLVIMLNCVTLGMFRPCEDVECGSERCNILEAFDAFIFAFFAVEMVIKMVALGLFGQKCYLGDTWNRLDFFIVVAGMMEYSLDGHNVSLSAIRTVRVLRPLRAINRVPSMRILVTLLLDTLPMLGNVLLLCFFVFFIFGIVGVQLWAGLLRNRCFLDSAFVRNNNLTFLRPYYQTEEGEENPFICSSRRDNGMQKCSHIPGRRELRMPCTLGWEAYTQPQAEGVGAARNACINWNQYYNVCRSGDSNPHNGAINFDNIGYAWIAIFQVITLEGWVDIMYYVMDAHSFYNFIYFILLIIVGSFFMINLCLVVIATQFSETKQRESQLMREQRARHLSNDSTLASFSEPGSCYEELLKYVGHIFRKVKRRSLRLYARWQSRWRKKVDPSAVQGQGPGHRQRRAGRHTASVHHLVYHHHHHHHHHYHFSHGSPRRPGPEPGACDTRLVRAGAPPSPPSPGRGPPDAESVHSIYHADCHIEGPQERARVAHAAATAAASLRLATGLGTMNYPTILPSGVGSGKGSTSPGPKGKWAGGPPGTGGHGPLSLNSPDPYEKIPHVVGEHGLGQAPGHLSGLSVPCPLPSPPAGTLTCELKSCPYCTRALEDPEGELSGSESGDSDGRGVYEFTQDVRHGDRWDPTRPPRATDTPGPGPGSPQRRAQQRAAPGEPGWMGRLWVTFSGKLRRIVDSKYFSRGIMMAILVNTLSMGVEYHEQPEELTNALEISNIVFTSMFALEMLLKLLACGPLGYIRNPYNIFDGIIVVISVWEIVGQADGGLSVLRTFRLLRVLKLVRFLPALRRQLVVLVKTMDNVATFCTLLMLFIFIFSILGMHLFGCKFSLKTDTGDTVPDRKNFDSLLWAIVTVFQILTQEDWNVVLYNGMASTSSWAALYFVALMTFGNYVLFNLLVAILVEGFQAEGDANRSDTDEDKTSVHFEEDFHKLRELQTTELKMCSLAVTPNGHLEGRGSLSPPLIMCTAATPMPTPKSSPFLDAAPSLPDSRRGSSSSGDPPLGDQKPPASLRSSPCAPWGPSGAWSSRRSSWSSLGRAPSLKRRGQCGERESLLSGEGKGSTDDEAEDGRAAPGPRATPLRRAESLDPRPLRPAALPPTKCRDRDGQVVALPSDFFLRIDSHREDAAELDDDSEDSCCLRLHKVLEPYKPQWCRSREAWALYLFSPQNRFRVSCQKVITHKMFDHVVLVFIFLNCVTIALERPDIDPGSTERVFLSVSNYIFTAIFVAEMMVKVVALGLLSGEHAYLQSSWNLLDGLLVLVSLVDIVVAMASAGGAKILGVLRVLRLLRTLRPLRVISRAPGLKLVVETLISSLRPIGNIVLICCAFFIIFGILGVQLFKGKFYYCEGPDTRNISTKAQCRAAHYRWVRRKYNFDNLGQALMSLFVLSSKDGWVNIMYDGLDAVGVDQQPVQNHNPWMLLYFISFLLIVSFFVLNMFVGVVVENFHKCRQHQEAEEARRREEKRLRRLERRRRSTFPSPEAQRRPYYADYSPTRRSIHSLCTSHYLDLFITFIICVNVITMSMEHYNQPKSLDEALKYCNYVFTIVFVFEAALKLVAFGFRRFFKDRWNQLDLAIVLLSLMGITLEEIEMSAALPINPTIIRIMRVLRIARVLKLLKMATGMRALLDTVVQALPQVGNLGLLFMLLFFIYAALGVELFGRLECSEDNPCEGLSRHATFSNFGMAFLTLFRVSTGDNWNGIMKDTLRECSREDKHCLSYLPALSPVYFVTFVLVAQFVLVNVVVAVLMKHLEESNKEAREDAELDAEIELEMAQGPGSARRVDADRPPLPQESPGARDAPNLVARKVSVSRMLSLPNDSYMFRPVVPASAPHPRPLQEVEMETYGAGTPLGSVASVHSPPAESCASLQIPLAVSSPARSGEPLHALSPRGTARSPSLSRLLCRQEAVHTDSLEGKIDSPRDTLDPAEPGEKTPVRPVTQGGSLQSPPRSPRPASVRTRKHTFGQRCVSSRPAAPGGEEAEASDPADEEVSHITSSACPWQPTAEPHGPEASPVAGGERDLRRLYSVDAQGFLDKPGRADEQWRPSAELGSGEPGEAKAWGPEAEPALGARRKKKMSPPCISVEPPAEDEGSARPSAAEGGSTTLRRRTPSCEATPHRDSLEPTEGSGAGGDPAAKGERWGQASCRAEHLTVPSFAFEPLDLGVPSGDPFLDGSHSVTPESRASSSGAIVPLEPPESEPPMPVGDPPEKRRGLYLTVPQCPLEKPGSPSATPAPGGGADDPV
# [16] = A Cell Based Secondary Assay To Explore Cytotoxicity of Compounds that Sensitize Mycobacterium Tuberculosis to Beta-Lactam Antibiotics.; format: functional
# Trypsin = Trypsin (Sus scrofa, UniProt P00761); test: porcine trypsin inhibitors, dose response, selectivity assay for Rce1 protease inhibitor project, biochemical, quenched peptide fluorescence, cherry-pick (AID 488789)
# Trypsin, sequence (P00761 whole entry): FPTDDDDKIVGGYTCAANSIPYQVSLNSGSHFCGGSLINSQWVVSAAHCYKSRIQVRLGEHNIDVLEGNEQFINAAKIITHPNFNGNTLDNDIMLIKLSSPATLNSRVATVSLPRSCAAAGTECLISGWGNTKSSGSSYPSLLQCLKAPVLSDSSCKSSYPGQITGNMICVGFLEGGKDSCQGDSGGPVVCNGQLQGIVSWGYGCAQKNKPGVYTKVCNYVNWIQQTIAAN
# CAAX prenyl protease 2 = molecular target: T4, CAAX prenyl protease 2 (Saccharomyces cerevisiae S288c, UniProt Q03530); format: biochemical
# T4 sequence (Q03530 whole entry): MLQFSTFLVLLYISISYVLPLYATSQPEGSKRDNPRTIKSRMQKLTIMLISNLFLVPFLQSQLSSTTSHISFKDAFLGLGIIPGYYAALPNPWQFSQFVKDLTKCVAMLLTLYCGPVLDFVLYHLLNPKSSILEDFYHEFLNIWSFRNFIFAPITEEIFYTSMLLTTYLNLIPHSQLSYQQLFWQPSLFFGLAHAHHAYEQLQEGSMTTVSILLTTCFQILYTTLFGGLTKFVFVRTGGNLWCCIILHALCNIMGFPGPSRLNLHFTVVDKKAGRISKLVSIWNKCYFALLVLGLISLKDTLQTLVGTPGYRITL
# [17] = P. falciparum Dd2 growth inhibitors, dose response, SYBR Green, cherry-picked samples (AID 1159567); format: functional, cell-based
smiles,measurement,setting,value
O=C(NNc1cc(Cl)cc(Cl)c1)c1c(F)cccc1Cl,CC50,[1],> 40 µM (active)
CC(C)c1ccc(C(=O)NCc2ccc(Cl)cc2)cc1,IC50,[2],> 64 µM (inactive)
O=S(=O)(Nc1ccc(-c2csc(-c3ccccc3)n2)cc1)c1ccc(F)cc1,EC50,[3],2.05 µM (active)
same,EC50,Streptokinase A,8.48 µM (active)
same,EC50,[4],2.45 µM (active)
same,IC50,[5],8.02 µM (not active)
same,EC50,[6],> 60 µM (not active)
same,EC50,Streptococcus,5.63 µM (active)
COC(=O)c1c(NC(=O)CC2NCCNC2=O)sc2c1CCCC2 (stereo not drawn),CC50,[7],> 40 µM (active)
CC(=O)Nc1ccc(S(=O)(=O)n2cnc3cc(C)c(C)cc32)cc1,IC50,Prothrombin,> 50 µM (not active)
O=C1c2ccccc2C(=O)N1CCC(c1ccc(F)cc1)c1ccco1 (stereo not drawn),IC50,[8],> 100 µM (active)
Cn1c(N)c(C(=O)COC(=O)c2ccc(Cl)c(S(=O)(=O)N3CCCCC3)c2)c(=O)n(C)c1=O,IC50,[5],29.2 µM (not active)
Cc1cc(N2CCCCC2)nc2ccc(NC(=O)c3ccc(Br)o3)cc12,IC50,[5],3.3 µM (not active)
c1ccc(CCc2nn3c(C4COc5ccccc5O4)nnc3s2)cc1 (stereo not drawn),CC50,[1],> 40 µM (active)
COc1cc(C2Nc3cccc4cccc(c34)N2)cc(OC)c1OC(C)=O,IC50,[9],2.8 µM (active)
same,CC50,[1],> 40 µM (active)
CCOc1ccc(NC(=O)CSc2nc(N)c(-c3ccccc3)c(=O)[nH]2)cc1,IC50,Leucine aminopeptidase,5.72 µM (active)
COc1cccc(-c2nn(C)c3sc(C(=O)Nc4ccc5c(c4)OCCO5)cc23)c1,EC50,[10],5.99 µM (active)
same,EC50,[11],22.9 µM (active)
same,EC50,[3],6.53 µM (active)
same,EC50,H4,> 120 µM (not active)
same,EC50,Streptokinase A,> 150 µM (not active)
same,EC50,Streptococcus,13.9 µM (active)
same,CC50,[7],> 40 µM (active)
CN1CCN(C(=O)CSc2nc(-c3cccs3)cc(-c3cccs3)c2C#N)CC1,EC50,[12],10 µM (active)
same,EC50,[13],9.41 µM (active)
CCOc1ccc2nc(O)c(CN(Cc3ccco3)C(=O)c3ccc(Br)cc3)cc2c1,CC50,[7],32.4 µM (active)
CC(C)(C)n1nc2c(c1NC(=O)c1ccc(Br)o1)C[S+]([O-])C2 (stereo not drawn),IC50,[8],> 100 µM (active)
COc1ccccc1NS(=O)(=O)c1cc(N)ccc1N1CCCCC1,IC50,[14],72.5 µM (active)
O=C(Nc1ccccc1)c1nnn(Cc2ccccc2)c1NC(=O)C(F)(F)F,EC50,[15],4.59 µM (active)
CCCCC1=CC2=C(c3ccco3)C(=O)C(C)(OC(=O)c3ccc(OC)cc3)C(=O)C2=CN1CCCCO (stereo not drawn),IC50,[8],> 100 µM (active)
COc1ccc(-n2c(=O)[nH]c3ccccc3c2=O)c(OC)c1,IC50,[8],> 100 µM (active)
Cn1c(Cl)nc2c1c(=O)n(Cc1cccc(Br)c1)c(=O)n2C,IC50,Prothrombin,> 50 µM (not active)
Cn1c(SCC(=O)NCc2ccc3c(c2)OCO3)nnc1C1COc2ccccc2O1 (stereo not drawn),IC50,Leucine aminopeptidase,< 1 µM (active)
CCC(=O)Oc1ccc2c(C)c(Cl)c(=O)oc2c1,IC50,Prothrombin,> 50 µM (not active)
O=C(CCS(=O)(=O)c1cccs1)N1CCCC1,EC50,[10],> 120 µM (not active)
same,EC50,[11],> 120 µM (not active)
same,EC50,H4,17.8 µM (active)
same,IC50,[2],> 64 µM (inactive)
Cc1ccc(S(=O)(=O)c2nc(-c3ccccc3)oc2NCc2cccnc2)cc1,EC50,[15],8.55 µM (active)
Cc1c(C=O)c(C=O)c(C)n1Cc1ccccc1,CC50,[16],4.47 µM (active)
same,CC50,[7],6.52 µM (active)
CCc1cc(=O)oc2c3c(cc(OCC(=O)NCCCC(=O)O)c12)OC(C)(C)CC3,AC50,Trypsin,7.16 µM (active)
same,AC50,CAAX prenyl protease 2,12.1 µM (active)
COc1ccc(-c2c(-c3ccsc3)oc3ccc(N4CCOCC4)cc23)cn1,AC50,Trypsin,9.22 µM (active)
COc1cc(/C=N/NC(=O)C2c3ccccc3Oc3ccccc32)ccc1O,IC50,[2],> 64 µM (inactive)
O=C(NC1CCCCC1)N1CCS/C1=N\c1ccccc1,EC50,[15],7.51 µM (active)
Clc1ccc(/C(Cc2nc3ccccc3[nH]2)=N\Nc2ccccc2)cc1,CC50,[1],> 40 µM (active)
CC1=NNC(=O)C1CCC(=O)N/N=C\c1ccc(Cl)c(Cl)c1 (stereo not drawn),IC50,Leucine aminopeptidase,15 µM (active)
Cc1ccc(/C=N/NC(=O)c2nnn(-c3nonc3N)c2C(C)C)o1,AC50,CAAX prenyl protease 2,2.96 µM (active)
C/C(=N\NC(=O)Cc1c(C)n[nH]c1O)c1ccc2ccccc2c1,IC50,Leucine aminopeptidase,14 µM (active)
COc1ccccc1-c1ccccc1[C@@H]1[C@@H](C#N)N(C(=O)C2CC2)[C@@H]1CO,AC50,[17],17.4 µM (active)
COc1ccc(NC(=O)N(C)C[C@@H]2Oc3cc(-c4ccc(C)cc4)ccc3S(=O)(=O)N([C@@H](C)CO)C[C@@H]2C)cc1,AC50,[17],3.21 µM (active)
